Assay results from ChEMBL document CHEMBL5604062, “ASAP - ZIKV NS2B-NS3 protease fluorescence dose response” (2024).
“And” between values parts separate entries of the source, which are not always exact repeats. Equal entries are not always repeated.

Target: Nonstructural protein 3 (Zika virus, UniProt A0A024AXB9)
Assay: Functional biochemical assay to identify treatments for viral infectious disease that targets Zika NS2B-NS3 protease. Utilizing a direct enzyme activity measurement method, reading the fluorescence intensity is used to characterize the relative potency of inhibitors as IC50.
Parameters: species or system PRVABC59

Chain of Nonstructural protein 3 (A0A024AXB9 whole entry): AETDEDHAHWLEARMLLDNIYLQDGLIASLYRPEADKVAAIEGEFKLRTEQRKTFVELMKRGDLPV

Compound | IC50
NCc1cc(Br)cc(NC(=O)c2cc(Cl)cc(NC(=O)OCc3ccccc3)c2)c1 | 16.7 µM
C#Cc1cc(NC(=O)OCc2ccccc2)cc(C(=O)Nc2cccc(CN)c2)c1 | 36.4 µM
O=C(Nc1cc(-c2cccnc2)ccn1)c1cn([C@H]2CCCNC2)nn1 | > 25 µM
O=C(Nc1cc(Cl)cc(C(=O)NC[C@H]2C[C@@H]2C(=O)O)c1)OCc1ccccc1 | > 99.5 µM
Cc1c(C(=O)Nc2cc(-c3cccnc3)ccn2)cc(C2CCCC2)n1C | > 25 µM
O=C(Nc1cc(Cl)cc(C(=O)NCc2n[nH]c3c2CNCC3)c1)OCc1ccccc1 | > 99.5 µM
N#Cc1ccc(S(=O)(=O)Nc2ccc(Oc3ccccc3Cl)cc2)c(C(=O)O)c1 | > 99.5 µM
c1nc(C2CCN(Cc3n[nH]c4c3COCC4)CC2)cs1 | > 99.5 µM
CNC(=O)[C@H](Nc1cc(CN)cc(-c2nn[nH]n2)c1)c1cc(Cl)cc(C2CC2)c1 | 0.589 µM
C=CC[C@H]1NCc2cc(NC(=O)c3cccc4c3CC(=O)N4)ccc21 | 1.15 µM
O=C(NCc1cc(Cl)ccc1NS(=O)(=O)c1ccc(Oc2ccccc2Cl)cc1)C1CC1 | > 99.5 µM
O=C(O)C1CCC2(CC1)CC(Cc1c[nH]c3ccc(Cl)cc13)C2 (centres undefined) | > 99.5 µM
CN(C)Cc1ccccc1CNC(=O)[C@@H](NC(=O)OCc1ccccc1)c1ccc(OCc2ccccc2)cc1 | > 99.5 µM
O=C(Nc1ccc2c(c1)CNCC2)c1cc(Cl)cc2[nH]ncc12 | 0.504 µM
Cc1c(C(=O)Nc2cc(CCCN)ccc2F)cc(C2CC2)n1C | 69.2 µM
NCc1cc(Cl)cc(C(=O)Nc2cccc(-c3nn[nH]n3)c2)c1 | > 99.5 µM
Cc1ccc(Oc2ncccc2C#N)c(-c2ccc3[nH]c(C(=O)O)cc3c2)c1 | > 99.5 µM
c1cncc(N2CCCN(Cc3c[nH]c4ccccc34)CC2)c1 | > 99.5 µM
O=C(Nc1cc(Cl)cc(C(=O)Nc2ccc3c(c2)C(=O)OC3)c1)OCc1ccccc1 | > 99.5 µM
Cc1cc(CN)cc(C)c1NS(=O)(=O)c1ccc(Oc2ccccc2Cl)cc1 | 81.3 µM
c1ccc2c(CN3CCC(c4cnco4)CC3)c[nH]c2c1 | 56.1 µM
NCC1CCN(C(=O)c2cc(Cl)cc(NC(=O)OCc3ccccc3)c2)CC1 | 97.3 µM
O=C(Nc1cc(Cl)cc(CNc2cccc(-c3nn[nH]n3)c2)c1)OCc1ccccc1 | 27.3 µM
Cc1c(C(=O)Nc2cc(-c3cccnc3)ccn2)cc(CC(C)(C)C)n1C | > 25 µM
O=C(Nc1ccc2c(c1)C(=O)OC2)c1ccc2c(c1)CNC2 | > 25 µM
N#Cc1ccc(CN)cc1NC(=O)c1cc(Cl)cc(NC(=O)OCc2ccccc2)c1 | 18.7 µM

Compound | IC50
O=C(Nc1cc2c(c(-c3ccnnc3)c1)CNC2)c1cc(Cl)cc2[nH]ncc12 | 0.062 µM and 0.035 µM
CCn1c(=O)c(N2CC[C@]3(CNC(=O)O3)C2)nc2ccccc21 | > 99.5 µM
O=C(O)c1cc(Cl)cc(NS(=O)(=O)c2ccc(Oc3ccccc3Cl)cc2)c1 | > 99.5 µM
O=C(Nc1ccc2c(c1)CNC2)c1ccc2ncccc2c1 | > 25 µM
Clc1cccc([C@H](C#Cc2ccccc2)Nc2ccc3c(c2)CNC3)c1 | 5.26 µM
O=C(Nc1cc(Cl)cc(C(=O)Nc2cc(-c3nnn[nH]3)ccc2F)c1)OCc1ccccc1 | 41.5 µM
CC(C)[C@@H]1CC[C@@H](C)C[C@H]1C(=O)Nc1cccc(CN)c1 | > 99.5 µM
NCc1cccc(N[C@H](CCCO)c2cc(Cl)cc(NC(=O)OCc3ccccc3)c2)c1 | 62.3 µM
c1ccc2c(CN3CCC(c4c[nH]c5cccnc45)CC3)n[nH]c2c1 | 42.9 µM
O=C(Nc1ccc2c(c1)CNC2)c1cc(Br)cc2ccccc12 | 0.206 µM
O=Cc1cc(Cl)cc(NC(=O)OCc2ccccc2)c1 | > 99.5 µM
O=C(Nc1cc(Cl)cc(C(=O)Nc2cccc(-c3nnn[nH]3)c2)c1)OCc1ccccc1 | 40.8 µM
C[C@H](NC(=O)c1cccc2c1CC(=O)N2)c1cccc(S(C)(=O)=O)c1 | > 25 µM
NC1(c2cc(C(F)(F)F)ccc2NS(=O)(=O)c2ccc(Oc3ccccc3Cl)cc2)CC1 | > 99.5 µM
O=C(O)c1cc(Cc2c[nH]c3ccc(Cl)cc23)cc(C2CC2)n1 | > 99.5 µM
N#Cc1cccc2[nH]cc(CN3CCC(c4cscn4)CC3)c12 | > 99.5 µM
Cn1cc(N2CCN(Cc3c[nH]c4ccccc34)CC2)cn1 | > 99.5 µM
CC[C@H]1CN(C(=O)c2ccc(C3(CN)CC3)cc2)Cc2ccccc21 | > 99.5 µM
C[C@@H]1C[C@@H](C(=O)Nc2cccc(CN)c2)CCO1 | > 99.5 µM
NCCOc1ccnc(NS(=O)(=O)c2ccc(Oc3ccccc3Cl)cc2)c1 | > 99.5 µM
Cn1ccc(-c2cc(CN)cc([C@@H]3C[C@H]3c3cc(Cl)cc(NC(=O)OCc4ccccc4)c3)c2)n1 | 8.05 µM
O=C1Cc2ccc(NC(=O)c3cc(F)cc4[nH]ncc34)cc2N1 | > 25 µM
O=C(/C=C/c1ccccc1)C(=O)N1CCN(CCc2ccccc2)CC1 | 44.9 µM
O=C(Nc1cc(-c2cccnc2)ccn1)c1cc(C2CC2)no1 | > 25 µM
CCc1cc(C(=O)Nc2ccc3c(c2)CNC3)sc1-c1ccc(Cl)cc1 | > 99.5 µM
NCc1cccc(NC(=O)[C@H](NC(=O)CCc2ccccc2)c2ccc(OCc3ccccc3)cc2)c1 | 15.1 µM and 21.3 µM

Compound | IC50
COc1ccc(F)cc1-c1ccc(S(=O)(=O)Nc2ccc(Cl)cc2C(=O)O)cc1 | 28.8 µM
NCc1cccc(NC(=O)[C@H](NC(=O)OCc2ccccc2)c2cccc(OCC3CCOCC3)c2)c1 | > 99.5 µM
N[C@@H]1CC[C@H](NC(=O)[C@@H](NC(=O)OCc2ccccc2)c2ccc(OCc3ccccc3)cc2)C1 | > 99.5 µM
O=C(Nc1ccc2c(c1)CNC2)c1ccc2ncsc2n1 | 23.5 µM
NCc1cccc(NC(=O)c2cc(NC(=O)OCc3ccccc3)cc(C(F)(F)F)c2F)c1 | > 99.5 µM
NCc1cccc(NC(=O)[C@H](NC(=O)c2ccccc2Cl)c2ccc(OCc3ccccc3)cc2)c1 | 33.1 µM
Cc1c(C(=O)Nc2cccc(-c3ccc(O)nc3)c2)cc(C2CC2)n1C | > 25 µM
CNC(=O)[C@H](Nc1ccc2c(c1)CNC2)c1cccc2[nH]c(C(F)(F)F)nc12 | 3.42 µM
NC[C@]12CC[C@](NC(=O)c3cc(Cl)cc(NC(=O)OCc4ccccc4)c3)(CO1)C2 | 49.4 µM
FC(F)(F)Oc1cc(Cl)cc2c(CN3CCC(c4cscn4)CC3)c[nH]c12 | > 99.5 µM
Cn1nnnc1-c1cccc(NC(=O)c2cc(Cl)cc(NC(=O)OCc3ccccc3)c2)c1 | > 99.5 µM
N#Cc1cc(Cl)cc(C(=O)Nc2cccc(CN)c2)c1 | 11 µM
O=Cc1ccc(N2CCC(C(=O)NCc3cccc(-c4ccccc4)c3)CC2)cc1 | > 99.9 µM
NCc1cccc(NC(=O)[C@H](NS(=O)(=O)c2cccnc2)c2ccc(OCc3ccccc3)cc2)c1 | > 99.5 µM
Cn1nc(C(=O)Nc2cccc(CN)c2)cc1C1CC1 | > 99.5 µM
NCc1cccc(NC(=O)[C@@H](NC(=O)OCc2ccccc2)c2ccc(OCC3CCOCC3)cc2)c1 | 95.5 µM
c1cncc(-c2cccc(NCc3c[nH]c4ccccc34)c2)c1 | > 99.5 µM
CCNC(=O)Nc1cc(Cl)cc(C(=O)Nc2cccc(CN)c2)c1 | 0.659 µM
C[C@H]1CCC[C@H](C(=O)Nc2cccc(CN)c2)O1 | > 99.5 µM
CCn1ccnc(N2CC[C@@H](Cc3ccncc3)C2)c1=O | > 99.5 µM
O=C(Nc1ccc2c(c1)CNC2)[C@H]1CCCc2[nH]ncc21 | > 25 µM
CS(=O)(=O)NCc1cccc(CNC(=O)[C@@H](NC(=O)OCc2ccccc2)c2ccc(OCc3ccccc3)cc2)c1 | > 99.5 µM
CC(C)(C)OC(=O)Nc1cccc2[nH]cc(CN3CCC(c4cscn4)CC3)c12 | > 99.5 µM
O=C(Nc1cc(Cl)cc(C(=O)NC[C@H]2CNC3(CC3)CO2)c1)OCc1ccccc1 | > 99.5 µM
Cc1oc(C2CC2)nc1C(=O)Nc1cc(-c2cccnc2)ccn1 | > 25 µM
O=C1Cc2c(cccc2C(=O)Nc2ccc3c(n2)CNC3)N1 | 1.42 µM

Compound | IC50
O=C(Nc1ccc2c(c1)CNC2)c1cc(Cl)cc2c1cnn2C1CCOCC1 | 0.058 µM and 0.033 µM
O=C(Nc1cc(Cl)cc(C(=O)Nc2ccc3c(c2)C(=O)NC3)c1)OCc1ccccc1 | > 99.5 µM
COc1ccc(COc2ccc(S(=O)(=O)Nc3ccc(Cl)cc3C(=O)O)cc2)nc1 | > 99.5 µM
O=S(=O)(Nc1cccc(-c2nnn[nH]2)c1)c1cc(Cl)cc(-c2ccccc2)c1 | > 99.5 µM
CCn1ccnc(N2CC[C@H](c3ccc(C#N)cc3)C2)c1=O | > 99.5 µM
O=C(Nc1ccc2c(c1)CNC2)N1CCC[C@H]1c1nc2ncccc2[nH]1 | > 25 µM
CC(C)n1cnc2cc(C(=O)Nc3ccc4c(c3)CNC4)ccc21 | > 25 µM
O=C(Nc1ccc2c(c1)CNC2)c1cc(Cl)cc(N2CCCC2=O)c1 | 0.187 µM
O=C(Nc1cc(Cl)cc(C(=O)Nc2cccc(-c3cc[nH]n3)c2)c1)OCc1ccccc1 | > 99.5 µM
O=C(O)c1cc(Cl)ccc1S(=O)(=O)Nc1ccc(-c2n[nH]c3c2CCCC3)cc1 | > 99.5 µM
CN1C[C@H](c2cccc(CN)c2)[C@@H](c2cc(Cl)cc(NC(=O)OCc3ccccc3)c2)C1 | > 99.5 µM
Cc1c(C(=O)Nc2cc(C(=O)N[C@H]3CCOC3)ccn2)cc(C2CC2)n1C | > 25 µM
O=C(O)c1cc(Cl)ccc1CS(=O)(=O)c1ccc(Oc2ccccc2Cl)cc1 | > 99.5 µM
C[C@@H]1CNC[C@H]1c1ccc(NC(=O)c2ccc3c(c2)SCCN3)cc1 | > 99.5 µM
O=C(Nc1cc(-c2cccnc2)ccn1)c1cc2n(n1)CCO2 | > 25 µM
O=C(Nc1cc(Cl)cc(C(=O)Nc2ccc3c(c2)COC3)c1)OCc1ccccc1 | > 99.5 µM
NCc1ccc(NC(=O)c2cc(Cl)cc3[nH]ncc23)cc1 | 3.18 µM
NCCNS(=O)(=O)c1ccc(NC(=O)c2cc(Cl)cc(NC(=O)OCc3ccccc3)c2)cc1 | 10.9 µM
O=C(Cn1ccnc(N2CC[C@H](CO)C2)c1=O)Nc1ccccc1 | > 99.5 µM
NCc1ccc(NC(=O)[C@H]2[C@H]3CCCCC[C@H]3[C@H]2NC(=O)OCc2ccccc2)cc1 | 36.6 µM
O=C(Nc1ccc2c(c1)CNC2)c1cc(=O)[nH]c2c(F)cccc12 | 18.7 µM
CC(C)NC(=O)[C@H](Nc1ccc2c(c1)CN(C)C2(C)C)c1cc(Cl)cc2[nH]ncc12 | 3.83 µM
O=C(Nc1cc(Cl)cc(C(=O)Nc2ccc3c(c2)CCNC3)c1)OCc1ccccc1 | 1.48 µM
NCc1cccc(NC(=O)C2CCNCC2)c1 | > 99.5 µM
NCc1cccc(NC(=O)[C@@H](NC(=O)OCc2ccccc2)c2ccc(OCc3ccccn3)cc2)c1 | > 99.5 µM
NCc1cc(CC(=O)O)cc(NC(=O)c2cc(Cl)cc(NC(=O)OCc3ccccc3)c2)c1 | 7.96 µM
